From the NIST ThermoML archive (doi:10.1007/s10765-019-2573-6)

Settings: Liquid, Vibrating wire viscometry

CCCOC(=O)CCCCC(=O)OCCC [dipropyl hexanedioate]
viscosity [mPa·s]
Settings	100 kPa	1000 kPa	5000 kPa	10000 kPa	15000 kPa	20000 kPa	30000 kPa	40000 kPa
283.15 K	6.153	6.217	6.536	6.943	7.36	7.811	8.759	9.76
293.14 K	–	4.65	–	–	–	–	–	–
293.15 K	4.599	–	4.87	5.155	5.456	5.773	6.429	7.169
303.15 K	3.567	3.604	3.766	3.983	4.205	4.434	4.938	5.457
313.15 K	2.854	2.889	3.014	3.178	3.347	3.519	3.899	4.293
323.14 K	–	–	–	2.592	–	–	–	–
323.15 K	2.34	2.364	2.464	–	2.725	2.867	3.157	3.475
333.15 K	1.954	1.973	2.058	2.163	2.275	2.391	2.624	2.875
343.15 K	1.658	1.673	1.744	1.835	1.928	2.019	2.216	2.42
353.15 K	1.426	1.44	1.5	1.577	1.654	1.736	1.9	2.074
363.15 K	1.242	1.253	1.306	1.371	1.439	1.508	1.649	1.798

COC(=O)CCCCC(=O)OC [dimethyl 1,6-hexanedioate]
viscosity [mPa·s]
Settings	100 kPa	1000 kPa	5000 kPa	10000 kPa	15000 kPa	20000 kPa	30000 kPa	40000 kPa
293.15 K	–	–	3.46	3.623	3.787	3.958	4.333	4.722
293.17 K	3.302	3.331	–	–	–	–	–	–
303.15 K	–	–	2.735	2.854	–	–	–	–
303.16 K	–	–	–	–	2.985	3.115	3.384	3.672
303.17 K	2.617	2.637	–	–	–	–	–	–
313.14 K	–	2.151	–	–	2.422	2.522	2.727	–
313.15 K	2.129	–	2.227	2.326	–	–	–	2.955
323.14 K	–	–	–	–	–	–	–	2.432
323.15 K	1.774	1.789	1.85	1.928	2.008	2.089	2.254	–
333.14 K	–	–	–	–	–	–	–	2.046
333.15 K	1.503	1.514	1.565	1.629	1.696	1.764	1.903	–
343.15 K	1.293	1.303	1.346	1.401	1.457	1.514	1.63	1.752
353.15 K	1.128	–	1.174	1.221	1.269	1.317	1.417	1.52
353.16 K	–	1.136	–	–	–	–	–	–
363.13 K	–	–	–	–	1.115	1.157	–	–
363.15 K	0.9897	0.9971	1.03	1.072	–	–	1.244	1.332

CCCCOC(=O)CCCCC(=O)OCCCC [dibutyl hexanedioate]
viscosity [mPa·s]
Settings	100 kPa	1000 kPa	5000 kPa	10000 kPa	15000 kPa	20000 kPa	30000 kPa	40000 kPa
283.15 K	–	–	–	–	8.961	–	10.62	11.95
283.16 K	7.383	7.493	–	–	–	9.508	–	–
283.17 K	–	–	7.896	8.407	–	–	–	–
293.14 K	–	5.566	–	–	6.585	–	–	8.724
293.15 K	5.499	–	5.84	6.196	–	6.982	7.808	–
303.15 K	4.237	–	4.49	4.759	5.029	5.323	5.933	6.592
303.16 K	–	4.288	–	–	–	–	–	–
313.15 K	3.375	3.411	3.566	3.769	3.979	4.197	4.66	5.153
323.15 K	–	2.774	2.9	3.061	3.224	3.393	3.754	4.146
323.16 K	2.746	–	–	–	–	–	–	–
333.14 K	–	–	–	2.54	–	–	–	–
333.15 K	2.282	2.304	2.407	–	–	2.814	3.106	3.412
333.16 K	–	–	–	–	2.675	–	–	–
343.15 K	1.93	1.95	2.035	2.144	2.257	2.37	2.612	2.859
353.15 K	1.655	1.672	1.746	1.839	1.933	2.031	2.23	2.438
363.15 K	1.437	1.452	–	–	1.675	1.757	1.93	2.108
363.16 K	–	–	–	1.594	–	–	–	–
363.17 K	–	–	1.513	–	–	–	–	–

CCOC(=O)CCCCC(=O)OCC [diethyl hexanedioate]
viscosity [mPa·s]
Settings	100 kPa	1000 kPa	5000 kPa	10000 kPa	15000 kPa	20000 kPa	30000 kPa	40000 kPa
283.15 K	4.541	4.59	4.792	5.062	5.332	5.622	–	6.887
283.16 K	–	–	–	–	–	–	6.223	–
293.15 K	3.486	3.521	3.672	3.868	4.075	4.278	4.722	5.195
303.15 K	2.766	2.792	2.912	3.063	3.207	3.361	3.696	4.042
313.15 K	2.252	–	2.362	2.478	2.597	2.721	2.978	3.251
313.16 K	–	2.272	–	–	–	–	–	–
323.15 K	1.87	1.886	1.961	2.054	2.151	2.248	2.461	2.68
333.15 K	1.579	1.592	1.653	1.734	1.814	1.896	2.066	2.249
343.15 K	1.354	1.367	1.419	1.487	1.555	1.624	1.765	1.917
353.14 K	–	1.187	–	–	–	–	–	–
353.15 K	1.177	–	1.233	1.292	1.351	1.411	1.534	1.662
363.15 K	1.032	1.041	1.081	1.133	1.183	1.236	1.343	1.453
